Assay results reported in the supplement of paper PMC10307832.

Legend:
Assay in all cases: relative viability (nuclei count vs DMSO), 5 days (fraction); higher = more cells survive
[1] = compound: O=C(NCCCNc1nc(Nc2cccc(NC(=O)N3CCCC3)c2)ncc1I)c1cccs1 [BX 795] + CC(=O)c1c(C)c2cnc(Nc3ccc(N4CCNCC4)cn3)nc2n(C2CCCC2)c1=O [Palbociclib] (partner 0.5 µM)
Summary of the method: (§1)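 Lung cancer cell lines were seeded in 1536-well plates and dosed by pin tool the next day, with either a single drug or a fixed anchor-drug dose combined with five library-drug doses (not always all listed) spaced in √10 steps. Five days later, one step fixed the cells and stained their nuclei (final 0.05% Triton X-100, 1% formaldehyde, 1 ug/ml Hoechst), and nuclei were counted on 4× images. Relative viability is the nuclei count in treated wells divided by the count in vehicle wells, and each value is the median of duplicate plates.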

[2] = compound: O=C(NCCCNc1nc(Nc2cccc(NC(=O)N3CCCC3)c2)ncc1I)c1cccs1 [BX 795] + CCNC(=O)c1noc(-c2cc(C(C)C)c(O)cc2O)c1-c1ccc(CN2CCOCC2)cc1 [Luminespib] (partner 0.01 µM)
Summary of the method: as §1

[3] = compound: O=C(NCCCNc1nc(Nc2cccc(NC(=O)N3CCCC3)c2)ncc1I)c1cccs1 [BX 795] + COc1cccc2cc(-c3nc([C@H]4CC[C@H](C(=O)O)CC4)n4ncnc(N)c34)[nH]c12 [OSI-027] (partner 0.5 µM)
Summary of the method: as §1

[4] = compound: O=C(NCCCNc1nc(Nc2cccc(NC(=O)N3CCCC3)c2)ncc1I)c1cccs1 [BX 795] + CS(=O)(=O)N1CCN(Cc2cc3nc(-c4cccc5[nH]ncc45)nc(N4CCOCC4)c3s2)CC1 [Pictilisib] (partner 1 µM)
Summary of the method: as §1

[5] = compound: O=C(NCCCNc1nc(Nc2cccc(NC(=O)N3CCCC3)c2)ncc1I)c1cccs1 [BX 795] + N=C(N)NC(=N)NCCc1ccccc1 [Phenformin] (partner 250 µM)
Summary of the method: as §1

| Cell Line | relative viability ([1]; first compound 0.04 µM) | relative viability ([1]; first compound 0.1265 µM) | relative viability ([1]; first compound 0.4 µM) | relative viability ([1]; first compound 1.265 µM) | relative viability ([2]; first compound 0.04 µM) | relative viability ([2]; first compound 0.1265 µM) | relative viability ([2]; first compound 0.4 µM) | relative viability ([2]; first compound 1.265 µM) | relative viability ([3]; first compound 0.04 µM) | relative viability ([3]; first compound 0.1265 µM) | relative viability ([3]; first compound 0.4 µM) | relative viability ([3]; first compound 1.265 µM) | relative viability ([4]; first compound 0.04 µM) | relative viability ([4]; first compound 0.1265 µM) | relative viability ([4]; first compound 0.4 µM) | relative viability ([4]; first compound 1.265 µM) | relative viability ([5]; first compound 0.04 µM) | relative viability ([5]; first compound 0.1265 µM) | relative viability ([5]; first compound 0.4 µM) | relative viability ([5]; first compound 1.265 µM) |
| --- | --- | --- | --- | --- | --- | --- | --- | --- | --- | --- | --- | --- | --- | --- | --- | --- | --- | --- | --- | --- |
| NCI-H2405 | 0.535 | 0.537 | 0.384 | 0.566 | 0.718 | 0.714 | 0.573 | 0.585 | 0.75 | 0.65 | 0.66 | 0.559 | 0.373 | 0.364 | 0.295 | 0.319 | 0.438 | 0.355 | 0.33 | 0.262 |
| NCI-H322M | 0.486 | 0.468 | 0.571 | 0.587 | 0.589 | 0.915 | 0.266 | 1.03 | 0.614 | 0.587 | 0.414 | 0.559 | 0.627 | 0.521 | 0.537 | 0.527 | 0.858 | 0.796 | 0.951 | 0.659 |
| SK-LU-1 | 0.384 | 0.348 | 0.328 | 0.392 | 0.224 | 0.217 | – | 0.173 | 0.327 | 0.427 | – | 0.245 | 0.543 | 0.691 | 0.416 | 0.511 | 0.495 | 0.608 | – | 0.316 |
| PC-3 [JPC-3] | 0.539 | – | 0.57 | 0.543 | 0.67 | 0.628 | 0.774 | 0.698 | 0.813 | 0.81 | 0.829 | 0.72 | 0.753 | 0.707 | 0.685 | 0.827 | 0.484 | 0.439 | 0.492 | 0.483 |
| NCI-H727 | 0.634 | 0.61 | 0.67 | 0.696 | 0.345 | 0.257 | 0.29 | 0.389 | 0.761 | 0.635 | 0.537 | 0.557 | 0.498 | 0.643 | 0.31 | 0.315 | 0.571 | 0.566 | 0.444 | 0.617 |
| HARA | 0.237 | 0.183 | 0.201 | 0.208 | 0.588 | 0.838 | 0.907 | 0.656 | 0.598 | 0.494 | 0.701 | 0.41 | 0.403 | 0.412 | 0.496 | 0.474 | 0.446 | 0.424 | 0.506 | 0.447 |
| RERF-LC-KJ | – | 1.08 | 1.1 | 0.895 | 1.41 | 1.27 | 1.29 | 0.753 | 0.62 | 0.636 | 0.591 | 0.416 | 0.488 | 0.574 | 0.536 | 0.446 | 0.473 | 0.424 | 0.452 | 0.282 |
| NCI-H1651 | 0.566 | 0.534 | 0.538 | 0.541 | 0.982 | 0.987 | 0.78 | 0.511 | 0.588 | 0.716 | 0.576 | 0.765 | 0.569 | 0.617 | 0.615 | 0.645 | 0.322 | 0.356 | 0.312 | 0.24 |
| EPLC-272H | 0.352 | 0.419 | 0.317 | 0.387 | 0.342 | 0.187 | 0.158 | 0.292 | 0.297 | 0.291 | 0.304 | 0.336 | 0.364 | – | 0.308 | 0.304 | 0.364 | 0.216 | 0.284 | 0.272 |
| NCI-H358 | 0.132 | 0.134 | 0.131 | 0.107 | 0.471 | 0.325 | 0.635 | 0.218 | 0.761 | 0.796 | 0.666 | 0.513 | 0.387 | 0.251 | 0.327 | 0.245 | 0.296 | 0.319 | 0.257 | 0.117 |
| NCI-H2126 | 0.387 | 0.329 | 0.35 | 0.34 | 0.902 | 0.955 | 0.812 | 0.944 | 0.837 | 0.677 | 0.818 | 0.699 | 0.479 | 0.462 | 0.566 | 0.448 | 0.534 | 0.542 | 0.605 | 0.498 |
| A-427 | 0.562 | 0.482 | 0.508 | 0.502 | 0.779 | 0.866 | 0.643 | 0.665 | 0.514 | 0.476 | 0.51 | 0.299 | 0.723 | 0.805 | 0.651 | 0.585 | 0.284 | 0.236 | 0.277 | 0.177 |
| SW 1573 | 0.537 | 0.428 | 0.468 | 0.172 | 0.214 | 0.488 | 0.514 | 0.172 | 0.684 | 0.686 | 0.614 | 0.322 | 0.551 | 0.463 | 0.608 | 0.381 | 0.396 | 0.351 | 0.34 | 0.18 |
| NCI-H522 | 0.958 | 0.969 | 0.943 | 0.982 | 1.41 | 1.23 | 1.02 | 1.01 | 0.801 | 0.71 | 0.769 | 0.685 | – | – | – | – | 0.645 | 0.643 | 0.681 | 0.668 |
| NCI-H650 | 0.346 | 0.343 | 0.319 | 0.312 | 0.765 | 0.759 | 0.65 | 0.745 | 0.527 | 0.556 | 0.559 | 0.391 | 0.86 | 0.979 | 0.762 | 0.623 | 0.467 | 0.425 | 0.5 | 0.408 |
| IA-LM | – | – | – | – | – | – | – | – | – | – | – | – | 0.367 | 0.311 | 0.531 | 0.332 | – | – | – | – |
| NCI-H596 | – | – | – | – | 1.21 | 1 | 1.14 | 0.764 | 0.866 | 0.705 | 0.664 | 0.684 | 0.449 | 0.38 | 0.417 | 0.431 | 0.681 | 0.802 | 0.805 | 0.887 |
